Target: T1, Dd myosin-2 ΔSH3 (Dictyostelium discoideum, UniProt P08799, DEL33-79)
T1 construct: Dd myosin-2 ΔSH3, a recombinant motor domain construct that lacks this subdomain; made in house
Assay: In vitro motility assay (actin filament sliding)
Type: biochemical
Settings: 100 µM EMD 57033
From the text: Initial blind docking to homology models of the β-cardiac myosin motor domain in the post-rigor state indicated preferred binding of the drug to a region near the small N-terminal, SH3-like βbarrel subdomain. Important contacts are predicted to involve the SH3-like subdomain (residues 34–72) and two α-helices (residues 20–28 and 98–111). […] The sets of binding poses differ mainly in the orientation of the dimethylated catechol group, occupying either of the two possible branches of the Y, while the thiadiazinone moiety appears little affected and resides in the root of the Y shaped cavity (Figure 2A,B). Potential residues involved in the binding of the thiadiazinone and tetrahydroquinoline moieties of the compound include Arg23, Asp85, Lys86, Asp107, Arg108, and Ser111. The dimethylated catechol moiety is mainly bound by residues Lys34, Lys48, and Gln79, and thus, interacts with the SH3-like β-barrel.
Actin-sliding motility was performed at 20°C using an Olympus IX81 (Olympus, Hamburg, Germany) inverted fluorescence microscope as described previously ([Fujita-Becker et al., 2005]). Average sliding velocities were determined from the Gaussian distribution of automatically tracked actin filaments using DiaTrack 3.01 (Semasopht, Chavannes, Switzerland) and Origin 7.0 (OriginLab Corporation, Northampton, MA). Errors indicate standard deviations.

T1 sequence (P08799 other isoform, or with tags, fused parts or gaps DEL33-79): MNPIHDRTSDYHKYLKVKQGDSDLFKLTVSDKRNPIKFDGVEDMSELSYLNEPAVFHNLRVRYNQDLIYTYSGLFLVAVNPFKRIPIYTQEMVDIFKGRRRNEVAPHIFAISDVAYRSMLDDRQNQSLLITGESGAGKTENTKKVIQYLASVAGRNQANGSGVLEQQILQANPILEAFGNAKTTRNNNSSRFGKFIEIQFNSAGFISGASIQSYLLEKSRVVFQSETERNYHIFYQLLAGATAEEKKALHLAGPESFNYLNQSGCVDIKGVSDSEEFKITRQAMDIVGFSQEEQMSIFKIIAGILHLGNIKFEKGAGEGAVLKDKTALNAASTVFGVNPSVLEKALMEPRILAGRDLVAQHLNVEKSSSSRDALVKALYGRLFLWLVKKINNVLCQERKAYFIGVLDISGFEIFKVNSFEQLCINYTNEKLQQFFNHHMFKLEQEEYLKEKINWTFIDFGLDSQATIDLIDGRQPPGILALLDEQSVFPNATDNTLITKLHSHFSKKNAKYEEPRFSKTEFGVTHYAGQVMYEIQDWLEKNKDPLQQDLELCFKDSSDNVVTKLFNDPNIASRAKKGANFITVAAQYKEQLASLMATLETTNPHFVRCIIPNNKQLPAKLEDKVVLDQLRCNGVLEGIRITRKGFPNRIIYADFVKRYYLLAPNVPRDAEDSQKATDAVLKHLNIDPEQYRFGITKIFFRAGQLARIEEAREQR

Structure (SMILES): COc1ccc(C(=O)N2CCCc3cc(C4=NNC(=O)SC4C)ccc32)cc1OC (stereo not shown) [EMD 57033]
- Actin filament sliding velocity enhancement: no actin filament sliding velocity enhancement was observed
